Experimental data taken from patent US10100077B2, “6-aryl-9-glycosylpurines and use thereof” (UNIVERZITA PALACKEHO V OLOMOUCI, priority 2014, dated 2018).

Key:
[1] = test system: Arabidopsis wild-type plants (Col-0) detached leaves; assay: Differential gene expression study (RNA sequencing) in senescent detached leaves; settings: 48 h, 10 μM
Method: Comparative gene expression analysis in Arabidopsis model was performed to gain information about the reprogramming of gene transcription when senescent leaves were treated with 6-(3-methoxybenzylamino)-9-β-D-arabinofuranosylpurine (3MeOBAPA).
For isolation of total RNA, Arabidopsis wild-type plants (Col-0) were used, which were either treated with 3MeOBAPA or left untreated. Wild-type plants were grown in soil for 30 days, and then leaves of similar size and chlorophyll content were cut and immediately used for the treatment. At least 20 detached leaves were submerged in 1×MS medium supplemented with 10 μM 3MeOBAPA. Control samples were mock treated with DMSO only. After incubation for 6 h or 48 h in the dark, detached leaves were frozen in liquid nitrogen and used for RNA isolation; 150 mg of liquid nitrogen-ground material was used per isolation. cDNA sequencing libraries were prepared with the Illumina TruSeq Stranded mRNA LT Sample Prep Kit (Illumina, San Diego, Calif.) according to standard Illumina's protocols and sequenced on HiSeq 2500 apparatus (50 bp single-end reads). […] To gain insight into the molecular mechanism of 3MeOBAPA action in Arabidopsis we decided to analyze the gene expression patterns via comparison of mock (DMSO)-treated plants with those obtained after i) short time treatment with 3MeOBAPA (6 h) and ii) long time treatment (48 h). This comparison leads to identification of group of genes with similar kinetic of expression and helps to understand possible mechanism of regulation. For data analysis, we performed ab initio method where sequencing reads were mapped to the reference genome.

[2] = test system: EpiDERM 3D model of epidermis; assay: In vitro test of skin irritation in EpiDERM; assay type: cell-based
Method: EpiDERM™ is a 3D model of epidermis manufactured by Mattek company. The effects of tested substances are evaluated by MTT. 2 solutions (2 application forms) of the compounds 6-furfurylamino-9-β-D-arabinofuranosylpurine and 6-(3-methoxybenzylamino)-9-β-D-arabinofuranosylpurine in concentrations 1 mM a 200 microM in 0.5% DMSO/99.5% PBS were evaluated according to a standard protocol “INVITRO EpiDerm™ SKIN IRRITATION TEST”. After a preincubation of the tissues, 30 microliters of the application form solution were applied on the individual tissues. The exposition time was 60 minutes. Three tissues were used for each tested concentration as well as for controls. Following washing out of the applied solution, the tissues were incubated for 42 hour in order to allow a reparation of possible damage. In the next step, the tissue was incubated with MTT for 3 hours. The resulting formazan was extracted to isopropanol. Relative viability of the individual tissues was calculated as a percentage of viability of the average of the negative controls. Average viability of the tissues treated with 1 mM solution of the test substance was 99.3% for the compound 6-(3-methoxybenzylamino)-9-β-D-arabinofuranosylpurine and 98.0% for the compound 6-(furfurylamino)-9-β-D-arabinofuranosylpurine where 100% is an average viability of the tissues treated with the solvent only. None of the tested compounds in any of the concentrations caused any tissue damage or irritation. The compounds were evaluated as non-irritant in the tested concentrations.

COc1cccc(CNc2ncnc3c2ncn3[C@@H]2O[C@H](CO)[C@@H](O)[C@@H]2O)c1 [6-(3-methoxybenzylamino)-9-β-D-arabinofuranosylpurine]
logFC AT1G02790 Polygalacturonase 4 (PGA4) [1]: 8.59
logFC AT1G05580 Cation/H(+) exchanger 23 (CHX23) [1]: 5.46
logFC AT1G10585 Basic helix-loop-helix (bHLH) DNA-binding superfamily protein [1]: 4.85
logFC AT1G15540 2-oxoglutarate and Fe(II)-dependent oxygenase superfamily protein [1]: 5.63
logFC AT1G19670 Chlorophyllase-1 (CLH1) [1]: 6.42
logFC AT1G55560 SKU5 similar 14 (SKS14) [1]: 8.75
logFC AT1G59860 17.6 kDa class I heat shock protein 1 (HSP17.6A) [1]: 5.47
logFC AT1G59950 NAD(P)-linked oxidoreductase superfamily protein [1]: 5.72
logFC AT1G75830 Defensin-like protein 1.1 (PDF1.1) [1]: 7.85
logFC AT1G76640 Calcium-binding EF-hand family protein (CML39) [1]: 7.06
logFC AT2G02010 Glutamate decarboxylase 4 (GAD4) [1]: 5.09
logFC AT2G04460 Transposable element gene [1]: 5.43
logFC AT2G18150 Peroxidase 15 (PER15) [1]: 7.22
logFC AT2G21900 WRKY transcription factor 59 (WRKY59) [1]: 5.81
logFC AT2G26010 Defensin-like protein 1.3 (PDF1.3) [1]: 8.23
logFC AT2G26020 Defensin-like protein 1.2B (PDF1.2B) [1]: 6.04
logFC AT2G26695 Ran BP2/NZF zinc finger-like superfamily protein [1]: 5.90
logFC AT2G28210 Alpha carbonic anhydrase 2 (ATACA2) [1]: 5.86
logFC AT2G37430 Zinc finger protein ZAT11 [1]: 4.96
logFC AT2G39030 L-ornithine N5-acetyltransferase (NATA1) [1]: 5.48
logFC AT2G47040 Pectin methylesterase Vanguard1 (VGD1) [1]: 5.89
logFC AT2G47050 Plant invertase/pectin methylesterase inhibitor superfamily protein [1]: 5.82
logFC AT3G05610 Pectinesterase/pectinesterase inhibitor 21 (PME21) [1]: 5.58
logFC AT3G07820 Pectin lyase-like superfamily protein [1]: 6.45
logFC AT3G09340 Transmembrane amino acid transporter family protein [1]: 8.54
logFC AT3G11340 UDP-Glycosyltransferase superfamily protein [1]: 6.60
logFC AT3G13400 SKU5 similar 13 (SKS13) [1]: 5.57
logFC AT3G28153 Transposable element gene [1]: 5.70
logFC AT3G28155 ARM repeat superfamily protein [1]: 6.06
logFC AT3G44830 Putative phospholipid: diacylglycerol acyltransferase 2 (PDAT2) [1]: 4.91
logFC AT3G62710 Glycosyl hydrolase family protein [1]: 5.26
logFC AT4G01390 TRAF-like family protein [1]: 6.24
logFC AT4G21830 Peptide methionine sulfoxide reductase B7 (MSRB7) [1]: 5.95
logFC AT4G22030 F-box domain, cyclin-like, F-box domain, Skp2-like protein [1]: 5.02
logFC AT4G22620 SAUR-like auxin-responsive family protein [1]: 5.05
logFC AT4G24350 Phosphorylase superfamily protein [1]: 6.45
logFC AT4G26010 Peroxidase 44 (PER44) [1]: 7.92
logFC AT4G31950 Cytochrome P450 82C3 (CYP82C3) [1]: 5.29
logFC AT4G35010 Beta-galactosidase 11 (BGAL11) [1]: 5.33
logFC AT4G37780 Myb domain protein 87 (MYB87) [1]: 6.88
logFC AT4G39320 Microtubule-associated protein-related [1]: 5.09
logFC AT5G03610 GDSL esterase/lipase [1]: 4.61
logFC AT5G12960 Putative glycosyl hydrolase [1]: 5.26
logFC AT5G44420 Defensin-like protein 1.2A (PDF1.2A) [1]: 8.15
logFC AT5G44430 Defensin-like protein 1.2C (PDF1.2C) [1]: 8.87
logFC AT5G45880 Pollen Ole e 1 allergen and extensin family protein [1]: 5.52
logFC AT5G52670 Copper transport family protein [1]: 6.03
logFC AT5G61160 Agmatine coumaroyltransferase (ACT) [1]: 5.05
logFC AT5G62720 Integral membrane HPP family protein [1]: 5.31
logFC AT5G63270 RPM1-interacting protein 4 (RIN4) family protein [1]: 7.11
number of downregulated genes (P≤0.05) ([1]; vs mock): 7095 genes
number of upregulated genes (P≤0.05) ([1]; vs mock): 7509 genes
skin irritation evaluation ([2]; 1 mM and 200 microM in 0.5% DMSO/99.5% PBS): non-irritant
Average viability of the tissues ([2]; 1 mM solution, 60 minutes exposition, 100% = solvent only): 99.3%
